Results on one molecule are retold here after patent US20220370440A1 (Lead Discovery Center GmbH, priority 2018, published 2022).

Series [1] relates to A431. Description: A431 CellTiter-Glo. The series is classed as cell-based. As to conditions: Homo sapiens, A-431; 72 h compound incubation; read-out: A431 CTG IC50. In outline:
(§1)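 In this viability format, compound-treated cells sit 72 h at 37° C. before ATP content is quantified by luminescence, and IC50 is taken from the fitted dose-response curve.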

The subject of series [2] is H1975. Nature of the series: H1975 CellTiter-Glo. It counts as cell-based. As to conditions: Homo sapiens, NCI-H1975; 72 h compound incubation; read-out: H1975 CTG IC50. In a few lines:
as §1

Series [3] in a line: Metabolic stability in mouse liver microsomes without cofactor NADPH. The series is classed as in vitro ADME. As to conditions: 3 μM test compound, mouse liver microsomes, without NADPH, 50 min, 37° C., LC-MS/MS. In outline: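 Cofactor-free incubation: no NADPH added to mouse liver microsomes, with compound at 3 μM and 37° C. Remaining parent was quantified by LC-MS/MS at time points up to 50 minutes to track depletion.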

Series [4] deals with EGFR Exon 20 INSNPH Ba/F3 (Homo sapiens, UniProt P00533, DUP771-773, cells depend on it). Nature of the series: EGFR Exon 20 INSNPH Ba/F3 CellTiter-Glo. It counts as cell-based. As to conditions: CellTiter-Glo, 72 h, read-out: EGFR Exon 20 INSNPH Ba/F3 CTG IC50. In outline: (§2)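 Seed Ba/F3 cells; 24 h, 37 °C/5% CO2. Add cpds in DMSO, multiple concs; 72 h. CellTiter-Glo, 10 min RT, luminescence. IC50 by curve fit. Z′ ≥0.5 from DMSO vs 10 μM staurosporine.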

The test system of series [5] is H1781. Nature of the series: H1781 CellTiter-Glo. It counts as cell-based. As to conditions: NCI-H1781; 72 h compound incubation; read-out: H1781 CTG IC50. In a few lines: as §1
Series [6] concerns the target EGFR T790ML858R (Homo sapiens, UniProt P00533, L858R/T790M). Description: EGFR T790ML858R Lance assay. It counts as biochemical. As for the experimental part:
(§3) Inhibition is indicated as […] [nM] (“−”=not measured). Compounds having an activity designated as “A” provided an IC50≤100 nM; compounds having an activity designated as “B” provided an 100 nM<IC50≤500 nM; compounds having an activity designated as “C” provided an 500 nM<IC50≤1000 nM; compounds having an activity designated as “D” provided an 1000 nM<IC50≤100000 nM; and compounds having an activity designated as “E” provided an IC50>10000 nM.

Series [7] deals with Her2 Exon 20 INSYVMA Ba/F3 (Homo sapiens, UniProt P04626, DUP772-775, cells depend on it). Nature of the series: Her2 Exon 20 INSYVMA Ba/F3 CellTiter-Glo. It counts as cell-based. As to conditions: CellTiter-Glo, 72 h, read-out: Her2 Exon 20 INSYVMA Ba/F3 CTG IC50. In a few lines:
as §2

Series [8] has as its target T1, HER2 INS YVMA (Homo sapiens, UniProt P04626, INS775YVMA).
T1 construct: purchased DPF
Description: Lance Kinase Activity Assay, HER2 INS YVMA (Her2 Exon 20 INSYVMA Lance). The series is classed as biochemical. As to conditions: biochemical Lance assay. In a few lines:
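IC50 was fitted to sigmoidal curves of TR-FRET signal (665 and 615 nm emission after 340 nm excitation) from an Eu anti-phospho antibody binding the phosphorylated ULight peptide. The ATP-started reaction ran 1 h at RT and was then quenched with 10 mM EDTA plus antibody for a further 1 h. Compounds were tested as 8-point, 3-fold dilutions.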

The target in series [9] is EGFR wt (Homo sapiens, UniProt P00533). Nature of the series: EGFR wt Lance assay. The series is classed as biochemical. As for the experimental part: as §3

pIC50: −log10 of the molar value.

Chain of EGFR T790ML858R (P00533 25-1210 T790M/L858R): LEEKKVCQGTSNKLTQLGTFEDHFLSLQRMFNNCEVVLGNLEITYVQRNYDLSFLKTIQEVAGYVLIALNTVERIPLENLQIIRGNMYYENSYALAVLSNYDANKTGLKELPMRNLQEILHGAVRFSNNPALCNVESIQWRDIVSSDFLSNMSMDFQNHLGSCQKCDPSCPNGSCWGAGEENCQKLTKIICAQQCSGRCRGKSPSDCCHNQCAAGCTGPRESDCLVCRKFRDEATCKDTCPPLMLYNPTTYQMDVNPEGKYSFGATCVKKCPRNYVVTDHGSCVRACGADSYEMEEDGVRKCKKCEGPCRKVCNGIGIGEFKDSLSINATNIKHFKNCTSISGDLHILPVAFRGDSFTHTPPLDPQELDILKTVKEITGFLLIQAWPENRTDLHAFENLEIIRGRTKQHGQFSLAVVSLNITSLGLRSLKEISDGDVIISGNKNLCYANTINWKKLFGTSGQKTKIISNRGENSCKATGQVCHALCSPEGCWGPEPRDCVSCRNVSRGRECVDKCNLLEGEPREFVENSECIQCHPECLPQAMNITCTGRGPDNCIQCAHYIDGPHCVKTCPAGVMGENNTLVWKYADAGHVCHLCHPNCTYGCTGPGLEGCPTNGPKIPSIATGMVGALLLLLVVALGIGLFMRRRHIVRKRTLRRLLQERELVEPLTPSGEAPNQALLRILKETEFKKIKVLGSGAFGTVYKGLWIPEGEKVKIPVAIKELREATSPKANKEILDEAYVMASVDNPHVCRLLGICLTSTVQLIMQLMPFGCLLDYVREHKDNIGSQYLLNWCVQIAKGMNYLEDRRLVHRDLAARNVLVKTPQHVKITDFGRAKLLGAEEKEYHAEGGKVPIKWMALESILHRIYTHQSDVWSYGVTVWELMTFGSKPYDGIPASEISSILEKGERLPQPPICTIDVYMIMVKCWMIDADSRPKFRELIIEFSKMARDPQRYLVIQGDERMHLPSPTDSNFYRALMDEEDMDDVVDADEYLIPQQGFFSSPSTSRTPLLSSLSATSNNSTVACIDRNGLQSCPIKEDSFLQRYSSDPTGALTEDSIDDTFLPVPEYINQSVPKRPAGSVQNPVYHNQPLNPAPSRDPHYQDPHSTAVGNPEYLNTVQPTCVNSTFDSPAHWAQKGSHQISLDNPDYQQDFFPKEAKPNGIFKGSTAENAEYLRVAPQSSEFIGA
Chain of EGFR Exon 20 INSNPH Ba/F3 (P00533 with tags, fused parts or gaps DUP771-773): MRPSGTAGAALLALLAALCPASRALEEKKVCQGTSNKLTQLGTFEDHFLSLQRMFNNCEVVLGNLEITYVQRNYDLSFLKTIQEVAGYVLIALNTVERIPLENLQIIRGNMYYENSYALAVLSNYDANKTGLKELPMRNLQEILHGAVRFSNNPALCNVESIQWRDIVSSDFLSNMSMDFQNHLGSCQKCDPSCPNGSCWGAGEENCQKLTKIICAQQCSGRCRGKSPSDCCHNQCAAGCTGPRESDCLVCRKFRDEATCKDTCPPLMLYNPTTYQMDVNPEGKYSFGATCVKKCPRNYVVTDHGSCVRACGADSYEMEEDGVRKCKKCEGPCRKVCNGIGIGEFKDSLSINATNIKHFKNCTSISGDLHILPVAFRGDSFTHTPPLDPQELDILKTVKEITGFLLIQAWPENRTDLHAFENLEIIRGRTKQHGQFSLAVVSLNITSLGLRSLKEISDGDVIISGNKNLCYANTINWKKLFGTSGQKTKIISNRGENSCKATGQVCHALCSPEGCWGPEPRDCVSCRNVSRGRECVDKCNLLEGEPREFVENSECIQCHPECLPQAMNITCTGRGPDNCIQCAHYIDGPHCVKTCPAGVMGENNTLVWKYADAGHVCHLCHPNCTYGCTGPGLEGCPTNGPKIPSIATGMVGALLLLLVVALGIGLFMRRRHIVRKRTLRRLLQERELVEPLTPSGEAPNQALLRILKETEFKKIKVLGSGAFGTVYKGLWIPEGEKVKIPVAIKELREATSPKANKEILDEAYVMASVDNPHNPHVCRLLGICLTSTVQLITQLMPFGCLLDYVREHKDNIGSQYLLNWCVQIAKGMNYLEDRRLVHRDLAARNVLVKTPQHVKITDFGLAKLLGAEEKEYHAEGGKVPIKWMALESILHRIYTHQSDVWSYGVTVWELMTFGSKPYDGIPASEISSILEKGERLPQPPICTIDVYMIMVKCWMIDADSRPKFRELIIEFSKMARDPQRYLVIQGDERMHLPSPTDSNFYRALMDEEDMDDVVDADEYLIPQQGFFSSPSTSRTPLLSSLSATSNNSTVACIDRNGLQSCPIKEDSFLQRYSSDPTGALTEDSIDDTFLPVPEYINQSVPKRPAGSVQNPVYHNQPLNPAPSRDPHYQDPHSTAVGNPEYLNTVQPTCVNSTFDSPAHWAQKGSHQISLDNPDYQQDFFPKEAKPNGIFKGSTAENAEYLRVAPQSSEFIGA
Chain of EGFR wt (P00533 25-1210): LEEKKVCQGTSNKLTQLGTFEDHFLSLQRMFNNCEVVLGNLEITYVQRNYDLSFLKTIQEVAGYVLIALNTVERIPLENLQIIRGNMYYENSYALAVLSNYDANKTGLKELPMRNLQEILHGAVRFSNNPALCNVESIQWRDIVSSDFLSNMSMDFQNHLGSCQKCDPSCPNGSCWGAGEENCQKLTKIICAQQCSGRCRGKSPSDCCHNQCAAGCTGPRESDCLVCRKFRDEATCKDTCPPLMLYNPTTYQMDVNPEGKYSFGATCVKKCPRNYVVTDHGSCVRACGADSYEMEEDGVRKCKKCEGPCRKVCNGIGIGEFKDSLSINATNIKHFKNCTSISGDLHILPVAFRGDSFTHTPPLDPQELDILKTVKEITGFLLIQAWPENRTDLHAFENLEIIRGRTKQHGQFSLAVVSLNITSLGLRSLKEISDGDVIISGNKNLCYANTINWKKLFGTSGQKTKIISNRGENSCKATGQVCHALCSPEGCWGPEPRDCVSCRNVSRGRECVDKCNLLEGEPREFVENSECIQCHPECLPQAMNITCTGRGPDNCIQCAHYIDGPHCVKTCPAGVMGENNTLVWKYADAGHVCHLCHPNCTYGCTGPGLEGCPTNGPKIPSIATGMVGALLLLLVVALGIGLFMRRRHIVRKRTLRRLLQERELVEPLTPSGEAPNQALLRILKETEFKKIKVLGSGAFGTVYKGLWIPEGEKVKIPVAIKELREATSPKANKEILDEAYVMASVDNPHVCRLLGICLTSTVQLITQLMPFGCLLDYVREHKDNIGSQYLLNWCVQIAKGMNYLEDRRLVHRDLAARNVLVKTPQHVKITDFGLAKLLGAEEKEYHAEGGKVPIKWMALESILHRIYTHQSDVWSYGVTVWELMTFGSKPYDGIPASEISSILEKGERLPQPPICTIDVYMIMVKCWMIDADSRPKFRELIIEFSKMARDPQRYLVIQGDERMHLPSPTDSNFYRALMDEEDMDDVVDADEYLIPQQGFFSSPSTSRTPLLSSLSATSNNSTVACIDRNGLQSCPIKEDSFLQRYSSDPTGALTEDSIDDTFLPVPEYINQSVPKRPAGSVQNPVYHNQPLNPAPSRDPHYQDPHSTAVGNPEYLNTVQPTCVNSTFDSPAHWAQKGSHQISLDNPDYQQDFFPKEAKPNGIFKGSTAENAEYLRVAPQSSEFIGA
T1 sequence (P04626 with tags, fused parts or gaps INS775YVMA): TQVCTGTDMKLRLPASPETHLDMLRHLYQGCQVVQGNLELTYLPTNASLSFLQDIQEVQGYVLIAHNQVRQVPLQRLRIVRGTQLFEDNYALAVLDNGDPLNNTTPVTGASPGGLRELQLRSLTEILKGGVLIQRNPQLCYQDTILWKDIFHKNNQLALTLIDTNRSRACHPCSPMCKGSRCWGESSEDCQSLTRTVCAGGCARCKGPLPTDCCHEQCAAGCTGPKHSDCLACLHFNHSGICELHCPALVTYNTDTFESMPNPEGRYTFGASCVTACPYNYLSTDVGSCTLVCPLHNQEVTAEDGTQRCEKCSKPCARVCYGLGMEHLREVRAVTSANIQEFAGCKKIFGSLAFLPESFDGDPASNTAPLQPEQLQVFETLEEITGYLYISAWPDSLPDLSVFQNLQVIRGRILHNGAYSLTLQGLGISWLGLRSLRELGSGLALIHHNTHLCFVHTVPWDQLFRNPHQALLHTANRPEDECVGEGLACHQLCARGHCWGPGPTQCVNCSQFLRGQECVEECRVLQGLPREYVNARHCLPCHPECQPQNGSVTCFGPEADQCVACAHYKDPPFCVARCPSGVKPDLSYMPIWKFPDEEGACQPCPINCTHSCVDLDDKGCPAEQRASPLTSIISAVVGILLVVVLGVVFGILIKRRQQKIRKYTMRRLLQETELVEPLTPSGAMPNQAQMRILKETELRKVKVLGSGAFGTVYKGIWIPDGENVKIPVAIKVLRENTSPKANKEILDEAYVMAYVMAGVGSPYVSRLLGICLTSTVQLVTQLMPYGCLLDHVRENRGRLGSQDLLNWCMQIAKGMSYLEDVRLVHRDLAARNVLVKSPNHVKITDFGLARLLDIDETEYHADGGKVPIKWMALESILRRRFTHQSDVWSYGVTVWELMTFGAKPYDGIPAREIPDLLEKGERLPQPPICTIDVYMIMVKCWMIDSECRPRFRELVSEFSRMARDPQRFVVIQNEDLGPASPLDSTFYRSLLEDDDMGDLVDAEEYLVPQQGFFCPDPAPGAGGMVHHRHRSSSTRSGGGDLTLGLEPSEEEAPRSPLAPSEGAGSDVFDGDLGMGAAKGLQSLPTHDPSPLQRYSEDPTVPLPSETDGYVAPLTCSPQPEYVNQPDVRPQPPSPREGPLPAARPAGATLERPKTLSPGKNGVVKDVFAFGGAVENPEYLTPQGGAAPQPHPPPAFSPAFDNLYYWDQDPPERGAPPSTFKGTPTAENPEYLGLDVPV

With `C=CC(=O)N1CCc2ccc(-c3c(-c4ccc(CN5CCN(C)CC5)cc4)[nH]c4nccc(Cl)c34)cc21` [Example 60, 1-(6-(4-chloro-2-(4-((4-methylpiperazin-1-yl)methyl)phenyl)-1H-pyrrolo[2,3-b]pyridin-3-yl)indolin-1-yl)prop-2-en-1-one], the pIC50 in [1] was 6.00 to 6.30; in series [2], 6.30 to 7.00; in series [5], 6.00 to 6.30; in series [6], at least 7.00; in series [8], at least 7.00; in series [9], at least 7.00. Moreover, in series [3], the “Stability in presence of mouse liver microsomes without cofactor NADPH [% remaining after 50 min]” value is listed as above 99 % remaining after 50 min. The GI50 in [4] and in series [7] was 100 to 500 nM in each case.
